Data as given in PMC7918738, “Microtubule Destabilizing Sulfonamides as an Alternative to Taxane-Based Chemotherapy” (International Journal of Molecular Sciences, 2021).

Assays:
[1] = test system: OVCAR-8 ovarian carcinoma cells; set-up: method as in ref 14 (Bicaku, E. et al.); details: ref 14 (Bicaku, E. et al.); read-out: Antiproliferative Activity IC50 OVCAR-8; cited from earlier work
[2] = test system: IGROV-1 ovarian carcinoma cells; assay: Antiproliferative activity against IGROV-1 (MTT); format: cell-based; details: Homo sapiens, 72 h
Experimental: (§1) The in vitro antiproliferative activity of compounds 38, 42, and 45 against a panel of five human ovarian carcinoma cell lines (SKOV3, IGROV-1, A2780, OVCAR-8, and OVCAR-3) was evaluated by a colorimetric method (Table 3) and compared with paclitaxel. […] For SKOV3, the potency reduction observed for paclitaxel together with a sustained or improved (42 with a 7 nM IC50 value) potency for MDS results in a more favorable profile of the MDS compared to paclitaxel.
(§2) MCF7 (human breast carcinoma), SKOV-3 (human ovarian carcinoma), OVCAR-3 (human ovarian carcinoma), OVCAR-8 (human ovarian carcinoma), and HeLa (human cervical carcinoma) cell lines were cultured in Dulbecco’s Modified Eagle’s Medium (DMEM) (Gibco, Thermo Fischer Scientific) containing 10% (v/v) heat-inactivated fetal bovine serum (HIFBS) (Lonza-Cambrex, Karlskoga, Sweden), 2 mM L-glutamine (Lonza-Cambrex, Karlskoga, Sweden), 100 μg/mL streptomycin, and 100 IU/mL penicillin (Lonza-Cambrex) at 37 °C in humidified 95% air and 5% CO2. HT-29 (human colon carcinoma), IGROV-1 (human ovarian carcinoma), and A2780 (human ovarian carcinoma) cell lines were cultured in RPMI 1640 medium (Gibco, Thermo Fischer Scientific) supplemented with 10% HIFBS, 100 μg/mL streptomycin, and 100 IU/mL penicillin at 37 °C in humidified 95% air and 5% CO2 atmosphere. The presence of mycoplasma was routinely checked with MycoAlert kit (Lonza-Cambrex) and only mycoplasma-free cells were used in the experiments. Ovarian tumor cell lines were originally acquired from Dr Atanasio Pandiella from Centro de Investigación del Cáncer (CIC), Salamanca, Spain. HeLa, HT-29 and MCF7 tumor cell lines were provided by Dr Faustino Mollinedo from Centro de Investigaciones Biológicas Margarita Salas, Madrid, Spain.
(§3) MCF7, HeLa, and HT-29 cell proliferation, when treated with the corresponding compounds, were determined using the XTT (sodium 3’-[1(phenylaminocarbonyl)-3,4-tetrazolium]-bis(4-methoxy-6-nitro)-benzenesulfonic acid hydrate) cell proliferation kit (Roche Molecular Biochemicals, Mannheim, Germany). […] The absorbance of the formazan product generated was measured at 450 nm using a multi-well plate reader. SKOV-3, OVCAR-3, OVCAR-8, IGROV-1, A-2780 cell proliferation, when treated with the corresponding compound, were determined using MTT (3-(4,5-dimethylthiazol-2-yl)-2,5-diphenyl-2H-tetrazolium bromide) (Sigma-Aldrich, St. Louis, MO, USA). […] Absorbance was measured at 570 nm in a plate reader (Ultra Evolution, Tecan, Männedorf, Suiza). […] After 24 h incubation, to allow cells to attach to the plates, all compounds were added at 1 µM concentration and the effect on the proliferation was evaluated 72 h post-treatment. […]

[3] = test system: SKOV3 ovarian carcinoma cells; assay: Antiproliferative activity against SKOV3 (MTT); format: cell-based; details: Homo sapiens, SK-OV-3, 72 h
Experimental: as §1, §2, §3

[4] = test system: OVCAR-3 ovarian carcinoma cells; set-up: method as in ref 14 (Bicaku, E. et al.); details: ref 14 (Bicaku, E. et al.); read-out: Antiproliferative Activity IC50 OVCAR-3; cited from earlier work
[5] = test system: HeLa (cervix epithelioid carcinoma); set-up: method as in PMID 7903152; details: read-out: Antiproliferative Activity IC50 HeLa; cited from earlier work
[6] = set-up: method as in PMID 12734814, PMID 17116587, PMID 17613018; details: cited from earlier work
[7] = test system: SKOV3 cells; assay: Annexin V-FITC/PI cell death quantification in SKOV3; format: cell-based, human; details: SKOV3, 72 h, 38 600 nM, 42 50 nM, 45 400 nM, paclitaxel 10 nM
Experimental: To determine whether the cytotoxic/antiproliferative effect of the MDS was due to apoptosis induction, cells were treated with variable concentrations of the drug for 72 h or 6 days, stained with Annexin V-FITC (AnV) and propidium iodide (PI), and analyzed by flow cytometry. Double negative cells (AnV^−/PI^−) were classified as live cells (L), cells positive for AnV and negative for PI (AnV^+/PI^−) were considered in Early Apoptosis (EA), cells negative for AnV and positive for PI (AnV^−/PI^+) were considered necrotic (N), and double-positive cells (AnV^+/PI^+) as Late Apoptosis (LA). In all cases, the compounds were used at the same concentrations previously used in cell cycle studies (Table 5).
MCF7, SKOV-3, and HeLa apoptotic cells were quantified using an Annexin V-FITC/PI apoptosis detection kit (Immunostep, Salamanca, Spain) according to the manufacturer’s guidelines. 1.5 mL/well of cells in the exponential growth phase at 2·10^4 cells/mL were seeded onto 12-well plates and left to attach overnight. After 24 h incubation, cells were treated with selected compounds. After 72 h (MCF7, SKOV-3, and HeLa) and 6 days (MCF7) post-treatment, attached and floating cells of treated and untreated wells were collected, centrifuged, resuspended in Annexin V binding buffer, and stained with Annexin V-FITC/PI. Cells were then incubated in darkness at room temperature for 15 min and a total of 30,000 cells were acquired and analyzed using the BD Accuri™ C6 Plus Flow Cytometer and Software (version 1.0.264.21, BD Biosciences, San José, CA, USA), respectively. Compounds were dissolved in DMSO and the final solvent concentration never exceeded 0.5% (v/v). Control wells included cells with 0.5% (v/v) DMSO.

[8] = test system: A2780 ovarian carcinoma cells; set-up: method as in ref 14 (Bicaku, E. et al.); details: ref 14 (Bicaku, E. et al.); read-out: Antiproliferative Activity IC50 A2780; cited from earlier work
[9] = test system: MCF7 (breast adenocarcinoma); set-up: method as in PMID 7903152; details: read-out: Antiproliferative Activity IC50 MCF7; cited from earlier work
[10] = test system: HT-29 (colon adenocarcinoma); set-up: method as in ref 52 (a number printed in a supplementary file, which may have a reference list of its own: not looked up in the article's list); details: read-out: Antiproliferative Activity IC50 HT-29; cited from earlier work

CC(=O)O[C@H]1C(=O)[C@@]2(C)[C@H]([C@H](OC(=O)c3ccccc3)[C@]3(O)C[C@H](OC(=O)[C@H](O)[C@@H](NC(=O)c4ccccc4)c4ccccc4)C(C)=C1C3(C)C)[C@]1(OC(C)=O)CO[C@@H]1C[C@@H]2O [Paclitaxel, reference compound]
IC50 [1]: 6 nM
IC50 [2]: 39 nM
IC50 [3]: 81 nM
IC50 [4]: 17 nM
IC50 [5]: 2.6 nM
Aqueous solubility [6]: <2 µg/mL
Annexin V-FITC/PI 72 h EA (early apoptosis) [7]: 3.8%
Annexin V-FITC/PI 72 h LA (late apoptosis) [7]: 3.1%
Annexin V-FITC/PI 72 h Live [7]: 90.7%
Annexin V-FITC/PI 72 h Necrosis [7]: 2.4%
Annexin V-positive SKOV3 cells [7]: 7%
Annexin V-FITC/PI 72 h Live ([7]; listed as paclitaxel): 91%
IC50 [8]: 3 nM
IC50 [9]: 2.5 nM
IC50 [10]: 2.8 nM
